# Results as given in patent publication US20240383923A1, “HETEROARYL DERIVATIVE AND USE THEREOF” (VORONOI INC., priority 2022, published 2024).
# Test system: BT-474 cancer cells
# Test: Inhibition of BT-474 cell proliferation (CellTiter-Glo)
# Assay type: cell-based
# Details: Homo sapiens, BT-474 cells, 120 hours
# Outline: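 BT-474 cells in RPMI-1640 with 20% FBS, seeded 48 h before dosing with 11 three-fold dilutions (final 0.2 nM to 10 μM). Viability read by CellTiter-Glo luminescence 120 h after treatment, triplicate tests. GI50 derived from growth rate (%) versus control.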
row,GI50 [nM],SMILES
1,≤ 50,"[2H]C([2H])([2H])Oc1cc(Oc2ccn3ncnc3c2)c(C)cc1Nc1ncnc2cc(OC)c(NC(=O)/C(F)=C\[C@H]3CCCN3C)cc12 [Example 150, (R,E)-N-(4-((4-([1,2,4]triazolo[1,5-a]pyridin-7-yloxy)-2-(methoxy-d3)-5-methylphenyl)amino)-7-methoxyquinazolin-6-yl)-2-fluoro-3-(1-methylpyrrolidin-2-yl)acrylamide]"
2,≤ 50,"COc1cc2ncnc(Nc3cc(C)c(Oc4cc5ncnn5cn4)cc3OC)c2cc1NC(=O)/C(F)=C/[C@H]1CCCN1C [Example 48, (R,Z)—N-(4-((4-([1,2,4]triazolo[1,5-c]pyrimidin-7-yloxy)-2-methoxy-5-methylphenyl)amino)-7-methoxyquinazolin-6-yl)-2-fluoro-3-(1-methylpyrrolidin-2-yl)acrylamide]"
3,≤ 50,"COc1cc2ncnc(Nc3cc(C)c(Oc4ccc5ccccc5c4)cc3OC)c2cc1NC(=O)/C(F)=C/[C@H]1CCCN1C [Example 64, (R,Z)-2-fluoro-N-(7-methoxy-4-((2-methoxy-5-methyl-4-(naphthalen-2-yloxy)phenyl)amino)quinazolin-6-yl)-3-(1-methylpyrrolidin-2-yl)acrylamide]"
4,≤ 50,"COc1cc2ncnc(Nc3cc(Cl)c(Oc4ccc5c(c4)ncn5C)cc3OC)c2cc1NC(=O)/C(F)=C/[C@H]1CCCN1C [Example 58, (R,Z)—N-(4-((5-chloro-2-methoxy-4-((1-methyl-1H-benzo[d]imidazol-5-yl)oxy)phenyl)amino)-7-methoxyquinazolin-6-yl)-2-fluoro-3-(1-methylpyrrolidin-2-yl)acrylamide]"
5,100 to 500,"C=CC(=O)N1CCC(Oc2cc3c(Nc4ccc(Oc5ccn(-c6cnc(OC)nc6)n5)cc4OC)ncnc3cc2OC)CC1 [Example 10, 1-(4-((7-methoxy-4-((2-methoxy-4-((1-(2-methoxypyrimidin-5-yl)-1H-pyrazol-3-yl)oxy)phenyl)amino)quinazolin-6-yl)oxy)piperidin-1-yl)prop-2-en-1-one]"
6,≤ 50,"COc1cc(Oc2ccn3ncnc3c2)c(C)cc1Nc1ncnc2cc(OC)c(OC3CCN(C(=O)C(F)Cl)CC3)cc12 (stereo not shown) [Example 14, 1-(4-((4-((4-([1,2,4]triazolo[1,5-a]pyridin-7-yloxy)-2-methoxy-5-methylphenyl)amino)-7-methoxyquinazolin-6-yl)oxy)piperidin-1-yl)-2-chloro-2-fluoroethan-1-one]"
7,≤ 50,"COc1cc2ncnc(Nc3cc(Br)c(Oc4ccn5ncnc5c4)cc3OC)c2cc1NC(=O)/C(F)=C\[C@H]1CCCN1C [Example 140, (R,E)-N-(4-((4-([1,2,4]triazolo[1,5-a]pyridin-7-yloxy)-5-bromo-2-methoxyphenyl)amino)-7-methoxyquinazolin-6-yl)-2-fluoro-3-(1-methylpyrrolidin-2-yl)acrylamide]"
8,> 500,"COc1cc2ncnc(Nc3cc(C)c(Oc4ccn5ncnc5c4)cc3OC)c2cc1NC(=O)/C(C#N)=C\C(C)(C)N1CCN(C2COC2)CC1 [Example 144, (Z)—N-(4-((4-([1,2,4]triazolo[1,5-a]pyridin-7-yloxy)-2-methoxy-5-methylphenyl)amino)-7-methoxyquinazolin-6-yl)-2-cyano-4-methyl-4-(4-(oxetan-3-yl)piperazin-1-yl)pent-2-enamide]"
9,50 to 100,"COc1cc2ncnc(Nc3cc(C)c(Oc4ccc(N(C)C)cc4)cc3OC)c2cc1NC(=O)/C(F)=C\[C@H]1CCCN1C [Example 123, (R,E)-N-(4-((4-(4-(dimethylamino)phenoxy)-2-methoxy-5-methylphenyl)amino)-7-methoxyquinazolin-6-yl)-2-fluoro-3-(1-methylpyrrolidin-2-yl)acrylamide]"
10,≤ 50,"COc1cc2ncnc(Nc3cc(F)c(Oc4ccn5ncnc5c4)cc3OC)c2cc1NC(=O)/C(F)=C\[C@H]1CCCN1C [Example 49, (R,E)-N-(4-((4-([1,2,4]triazolo[1,5-a]pyridin-7-yloxy)-5-fluoro-2-methoxyphenyl)amino)-7-methoxyquinazolin-6-yl)-2-fluoro-3-(1-methylpyrrolidin-2-yl)acrylamide]"
11,≤ 50,"COc1cc2ncnc(Nc3cc(C)c(Oc4ccn5ncnc5c4)cc3OC)c2cc1NC(=O)/C(F)=C\[C@@H]1CCCN1C [Example 44, (S,E)-N-(4-((4-([1,2,4]triazolo[1,5-a]pyridin-7-yloxy)-2-methoxy-5-methylphenyl)amino)-7-methoxyquinazolin-6-yl)-2-fluoro-3-(1-methylpyrrolidin-2-yl)acrylamide]"
12,≤ 50,"C=CC(=O)N1CC2CC1CC2Oc1cc2c(Nc3cc(C)c(Oc4ccn5ncnc5c4)cc3OC)ncnc2cc1OC (stereo not shown) [Example 18, 1-(5-((4-((4-([1,2,4]triazolo[1,5-a]pyridin-7-yloxy)-2-methoxy-5-methylphenyl)amino)-7-methoxyquinazolin-6-yl)oxy)-2-azabicyclo[2.2.1]heptan-2-yl)prop-2-en-1-one]"
13,100 to 500,"C=C(C(=O)Nc1cc2c(Nc3cc(C)c(Oc4ccn5ncnc5c4)cc3OC)ncnc2cc1OC)n1cccn1 [Example 147, N-(4-((4-([1,2,4]triazolo[1,5-a]pyridin-7-yloxy)-2-methoxy-5-methylphenyl)amino)-7-methoxyquinazolin-6-yl)-2-(1H-pyrazol-1-yl)acrylamide]"
14,≤ 50,"COc1cc(Oc2ccn3ncnc3c2)c(C)cc1Nc1ncnc2ccc(NC(=O)/C=C/CN(C)C)c(Cl)c12 [Example 26, (E)-N-(4-((4-([1,2,4]triazolo[1,5-a]pyridin-7-yloxy)-2-methoxy-5-methylphenyl)amino)-5-chloroquinazolin-6-yl)-4-(dimethylamino)but-2-enamide]"
15,≤ 50,"[2H]C([2H])([2H])N1CCC[C@@H]1/C=C/C(=O)Nc1cc2c(Nc3cc(C)c(Oc4ccn5ncnc5c4)cc3OC)ncnc2cc1OC [Example 153, (R,E)-N-(4-((4-([1,2,4]triazolo[1,5-a]pyridin-7-yloxy)-2-methoxy-5-methylphenyl)amino)-7-methoxyquinazolin-6-yl)-3-(1-(methyl-d3)pyrrolidin-2-yl)acrylamide]"
16,≤ 50,"C=CC(=O)N1CCN(c2ncc3ncnc(Nc4cc(C)c(Oc5ccn6ncnc6c5)cc4OC)c3n2)CC1 [Example 27, 1-(4-(8-((4-([1,2,4]triazolo[1,5-a]pyridin-7-yloxy)-2-methoxy-5-methylphenyl)amino)pyrimido[5,4-d]pyrimidin-2-yl)piperazin-1-yl)prop-2-en-1-one]"
17,≤ 50,"COc1cc2ncnc(Nc3cc(F)c(Oc4ccc5c(c4)ncn5C)cc3OC)c2cc1NC(=O)/C(F)=C\[C@H]1CCCN1C [Example 60, (R,E)-2-fluoro-N-(4-((5-fluoro-2-methoxy-4-((1-methyl-1H-benzo[d]imidazol-5-yl)oxy)phenyl)amino)-7-methoxyquinazolin-6-yl)-3-(1-methylpyrrolidin-2-yl)acrylamide]"
18,≤ 50,"COc1cc2ncnc(Nc3cc(C)c(Oc4ccc5c(c4)ncn5C)cc3OC)c2cc1NC(=O)/C(F)=C\[C@H]1CCCN1C [Example 57, (R,E)-2-fluoro-N-(7-methoxy-4-((2-methoxy-5-methyl-4-((1-methyl-1H-benzo[d]imidazol-5-yl)oxy)phenyl)amino)quinazolin-6-yl)-3-(1-methylpyrrolidin-2-yl)acrylamide]"
19,≤ 50,"COc1cc2ncnc(Nc3cc(C)c(Oc4cc5ncnn5cn4)cc3OC)c2cc1NC(=O)/C(F)=C\[C@H]1CCCN1C [Example 47, (R,E)-N-(4-((4-([1,2,4]triazolo[1,5-c]pyrimidin-7-yloxy)-2-methoxy-5-methylphenyl)amino)-7-methoxyquinazolin-6-yl)-2-fluoro-3-(1-methylpyrrolidin-2-yl)acrylamide]"
20,≤ 50,"[2H]C([2H])([2H])N1CCC[C@@H]1/C=C(\F)C(=O)Nc1cc2c(Nc3cc(F)c(Oc4ccn5ncnc5c4)cc3OC)ncnc2cc1OC [Example 155, (R,Z)—N-(4-((4-([1,2,4]triazolo[1,5-a]pyridin-7-yloxy)-5-fluoro-2-methoxyphenyl)amino)-7-methoxyquinazolin-6-yl)-2-fluoro-3-(1-(methyl-d3)pyrrolidin-2-yl)acrylamide]"
21,≤ 50,"COc1cc(Oc2ccn3ncnc3c2)c(C)cc1Nc1ncnc2ccc(NC(=O)/C(F)=C/[C@H]3CCCN3C)c(Cl)c12 [Example 141, (R,Z)—N-(4-((4-([1,2,4]triazolo[1,5-a]pyridin-7-yloxy)-2-methoxy-5-methylphenyl)amino)-5-chloroquinazolin-6-yl)-2-fluoro-3-(1-methylpyrrolidin-2-yl)acrylamide]"
22,≤ 50,"COc1cc2ncnc(Nc3cc(C)c(Oc4ccc5ncsc5c4)cc3OC)c2cc1NC(=O)/C(F)=C\[C@H]1CCCN1C [Example 81, (R,E)-N-(4-((4-(benzo[d]thiazol-6-yloxy)-2-methoxy-5-methylphenyl)amino)-7-methoxyquinazolin-6-yl)-2-fluoro-3-(1-methylpyrrolidin-2-yl)acrylamide]"
23,≤ 50,"COc1cc2ncnc(Nc3cc(C)c(Oc4ccc5scnc5c4)cc3OC)c2cc1NC(=O)/C(F)=C\[C@H]1CCCN1C [Example 84, (R,E)-N-(4-((4-(benzo[d]thiazol-5-yloxy)-2-methoxy-5-methylphenyl)amino)-7-methoxyquinazolin-6-yl)-2-fluoro-3-(1-methylpyrrolidin-2-yl)acrylamide]"
24,≤ 50,"COc1cc2ncnc(Nc3cc(C)c(Oc4ccc5cccnc5c4)cc3OC)c2cc1NC(=O)/C(F)=C/[C@H]1CCCN1C [Example 87, (R,Z)-2-fluoro-N-(7-methoxy-4-((2-methoxy-5-methyl-4-(quinolin-7-yloxy)phenyl)amino)quinazolin-6-yl)-3-(1-methylpyrrolidin-2-yl)acrylamide]"
25,≤ 50,"COc1cc2ncnc(Nc3cc(C)c(Oc4ccc5c(c4)OCO5)cc3OC)c2cc1NC(=O)/C(F)=C/[C@H]1CCCN1C [Example 86, (R,Z)—N-(4-((4-(benzo[d][1,3]dioxol-5-yloxy)-2-methoxy-5-methylphenyl)amino)-7-methoxyquinazolin-6-yl)-2-fluoro-3-(1-methylpyrrolidin-2-yl)acrylamide]"
